Measurements reported in paper PMC12292521, “Discovery of a Potent Antimicrobial Peptide Through Rational Design: A New Frontier in Pathogen Control” (Biomolecules, 2025).

How the values were obtained:
[1] = test system: Enterococcus faecium; test: Antimicrobial susceptibility by disk diffusion (EUCAST); type: cell-based
Procedure: (§1) The antimicrobial susceptibility of the four ESKAPE bacteria Acinetobacter baumannii, Enterococcus faecium, P. aeruginosa, and S. aureus, made available by the culture collection of IZSM, was evaluated by the disk diffusion method. Antimicrobials used were different and specific per each bacterium under study. […] Thereby, the diameter of the inhibition zones was measured, and bacteria were classified as resistant or sensitive per antibiotic tested in agreement with the European Committee for Antimicrobial Susceptibility Testing (EUCAST, 2025) breakpoints.

[2] = test system: Staphylococcus aureus (MRSA); test: as above; type: cell-based
Procedure: as §1

| SMILES | Susceptibility of the strain, in words [1] | Susceptibility of the strain, in words [2] |
| --- | --- | --- |
| CC1(C)S[C@@H]2[C@H](NC(=O)[C@H](N)c3ccccc3)C(=O)N2[C@H]1C(=O)O [Ampicillin] | resistant |  |
| CO[C@@]1(NC(=O)Cc2cccs2)C(=O)N2C(C(=O)O)=C(COC(N)=O)CS[C@@H]21 [Cefoxitin] |  | important resistance was detected |
| O=C(O)c1cn(C2CC2)c2cc(N3CCNCC3)c(F)cc2c1=O [Ciprofloxacin] | resistant | important resistance was detected |
| CC[C@H]1OC(=O)[C@H](C)[C@@H](O[C@H]2C[C@@](C)(OC)[C@@H](O)[C@H](C)O2)[C@H](C)[C@@H](O[C@@H]2O[C@H](C)C[C@H](N(C)C)[C@H]2O)[C@](C)(O)C[C@@H](C)C(=O)[C@H](C)[C@@H](O)[C@]1(C)O [Erythromycin] |  | important resistance was detected |
| C[C@H]1COc2c(N3CCN(C)CC3)c(F)cc3c(=O)c(C(=O)O)cn1c23 [Levofloxacin] | resistant | important resistance was detected |
| CN[C@H](CC(C)C)C(=O)N[C@H]1C(=O)N[C@@H](CC(N)=O)C(=O)N[C@H]2C(=O)N[C@H]3C(=O)N[C@H](C(=O)N[C@H](C(=O)O)c4cc(O)cc(O)c4-c4cc3ccc4O)[C@H](O)c3ccc(c(Cl)c3)Oc3cc2cc(c3O[C@@H]2O[C@H](CO)[C@@H](O)[C@H](O)[C@H]2O[C@H]2C[C@](C)(N)[C@H](O)[C@H](C)O2)Oc2ccc(cc2Cl)[C@H]1O [Vancomycin] | resistant |  |
